ChEMBL document CHEMBL3430912, “GSK Tres Cantos Anti-Kinetoplastid Screening (TCAKS) Data”

What was measured:
Leishmania donovani [1] = assay: (§1) GSK_TCAKS: pIC50 Leishmania donovani Imaging: THP-1 Host Macrophages. Assay plates (384-well) were prepared by adding 250nL of compound to each well. For single shot assay, the final compound concentration was 5 uM. […] Automated image analysis was performed with a script developed on Acapella High Content Imaging and Analysis Software (PerkinElmer). Output: THP-1 cell count were reported for each well.; assay type: functional, organism-based, Homo sapiens
[2] = system: Trypanosoma brucei brucei; assay: GSK_TCAKS: pIC50 Trypanosoma brucei viability assay using luminiscence. Assay plates (1536-well) were prepared. T. brucei cultures were harvested and counted in a CASY cell counter. A parasite suspension was prepared at a final concentration of 5 * 10^4 cells/mL in complete HMI9 medium and 6uL was dispensed to all wells containing compounds using a Multidrop Combi dispenser. 6uL of HMI9 media with 0.4% DMSO were dispensed to control columns. Plates were incubated for 24 h at 37C, 5% CO2 then tempered for 10 min at room temperature. ATP content was quantified by adding 4 uL of CellTiter-Glo Reagent (Promega) according to the manufacturer's instructions. Luminescence was measured using a ViewLux.; assay type: functional, organism-based; conditions: Lister 427, CASY
Trypanosoma cruzi [3] = assay: GSK_TCAKS: pIC50 Trypanosoma cruzi viability assay using beta-GAL activity. This assay was run at single shot at 5uM compound concentration per well. The biological reagents consisted of NIH-3T3 host cells and trypomastigotes parasitic cells; both cell types were set to a 3.3 * 10^5 cells/mL dilution in assay DMEM by means of a CASY cell counter device using a 60um capillary. 6 uL of the mixture were dispensed per well (about 1 * 10^3 host-cells and 1 * 10^3 parasites) with a Multidrop Combi dispenser. […] In all wells, the percentage of DMSO never exceeded 0.5%. Plates incubated for four days at 37C, 5% CO2. The substrate used for the assay fluorescence intensity (FLINT) readout was resorufin-beta-D-galactopiranoside (Sigma-Aldrich) at 5uM per well. It was diluted in PBS supplemented with the soft detergent Igepal (Fluka).; assay type: functional, organism-based, Mus musculus; conditions: Tulahuen, NIH3T3
[4] = system: Trypanosoma brucei brucei; assay: GSK_TCAKS: pIC50 Trypanosoma brucei viability assay using fluorescence intensity. Assay plates (1536-well) were prepared by dispensing 25nL of compound solution per well using an Echo acoustic dispenser (Labcyte).; assay type: functional, organism-based; conditions: Lister 427, 2 h
Trypanosoma cruzi [5] = assay: (§2) GSK_TCAKS: pIC50 Trypanosoma cruzi Imaging: Infected Cells. […] Cells were then washed once with PBS before infection. T. cruzi trypomastigotes, collected at days 5 to 8 after infection from LLC-MK2 parasite infected cultures, were allowed to swim out for 4h at 37C from a centrifuged pellet (2,500 rpm/10 min/room temperature). Trypomastigotes were then collected and counted in a CASY Cell Counter. Trypomastigotes, in supplemented DMEM, were added to H9c2 cultures in a multiplicity of infection of 1 and incubated for 18 h. Cells were washed once with PBS before incubation of the infected H9c2 monolayer with trypsin (Life-Technologies) to detach cells from the flask. Cells were counted in a CASY Cell Counter using a 150 um capillary and their density set at 5 * 10^4 cells per mL in supplemented assay DMEM. Infected H9c2 were dispensed into 384-well poly-lysine coated assay plates at 50uL per well using a Multidrop Combi dispenser. After seeding them, the plates were incubated at 37C, 5% CO2 for 72h. Cultures were then fixed and stained by addition of 50 uL of a solution containing 8% formaldehyde and 4 uM DRAQ5 DNA dye (BioStatus, UK) per well. […] Five images were collected per well for reliable statistical analysis. Automated image analysis was performed with a script developed on Acapella High Content Imaging and Analysis Software (PerkinElmer). Output: percentage of infected cells per well as a second infection marker.; assay type: functional, organism-based, Rattus norvegicus; conditions: H9c2, 4 h
Leishmania donovani [6] = assay: GSK_TCAKS: pIC50 Leishmania donovani viability assay using fluorescence intensity. Assay plates (1536-well) were prepared by adding 30nL per well of compound. For single shot assay, the final compound concentration was 5uM. […] Briefly, eGFP LdBOB axenic amastigotes were harvested, fixed and counted in a CASY cell counter (Roche-Applied Science). A final concentration of 1.5 * 10^5 cells per well were prepared in amastigote media containing 500 U/mL penicillin/streptomycin (Invitrogen) and 6uL was dispensed to each experimental well using a Multidrop Combi dispenser (Thermo Scientific). 6uL of assay media was dispensed to control columns used as reference for 100% compound response. Following incubation for 72 h at 37C, 5% CO2, 2 uL of resazurin was added to each well at a final concentration of 0.5 mM in phosphate buffered saline (PBS) with IGEPAL (Sigma-Aldrich), 0.05% (v/v).; assay type: functional, organism-based
Leishmania donovani [7] = assay: as §1, with “Infected” for “THP-1 Host”, “Percent of infected macrophage cells” for “THP-1 cell count”; assay type: functional, organism-based, Homo sapiens; conditions: THP-1
[8] = molecular target: Sterol 14-alpha demethylase (Trypanosoma cruzi (strain CL Brener), UniProt Q7Z1V1); assay: GSK_TCAKS: pIC50 CYP51 from Trypanosoma cruzi.; assay type: functional
Trypanosoma cruzi [9] = assay: as §2, with “H2C9” for “Trypanosoma cruzi”, “H9c2 Host Cardiomyocytes.” for “Infected Cells.”, “Number” for “percentage”, “H9c2 Host Cardiomyocytes nuclei to determine drug-related cytotoxicity.” for “infected cells per well as a second infection marker.”; assay type: functional, organism-based, Rattus norvegicus; conditions: H9c2, 4 h
Leishmania donovani [10] = assay: as §1, with “Amastigotes/Macrophages.” for “THP-1 Host Macrophages.”, “Average number of amastigotes per macrophage” for “THP-1”, “cell” for “cell count”; assay type: functional, organism-based, Homo sapiens; conditions: THP-1
[11] = GSK_TCAKS: pIC50 HepG2 human cell line viability assay using luminiscence. […] Seeding density was checked to ensure that new mono-layers were not more than 50% confluent at the time of harvesting. Cell suspension was added to 500 mL of the same medium at a final density of 1.2 * 10^5 cells/mL. This cell suspension was dispensed (25 uL, 3000 cells per well) into 384-well clear-bottom plates using a Multidrop Combi dispenser. Prior to addition of the cell suspension, the screening compounds (250 nL) were pre-dispensed into the plates with an Echo liquid handler. Plates were incubated for 48 h at 37C, 5% CO2. After incubation, plates equilibrated at room temperature for 30 min before proceeding to develop the luminescent signal. The signal developer, CellTiter-Glo Reagent, was allowed to equilibrate at room temperature for 30 min and added to the plates (25uL per well) using a Multidrop Combi dispenser. Plates were left for 10 min at room temperature for stabilization and then read using a ViewLux.; assay type: toxicity, cell-based
Trypanosoma cruzi [12] = assay: GSK_TCAKS: pIC50 Trypanosoma cruzi Imaging: Amastigotes/Cell. […] Cells were then washed once with PBS before infection. T. cruzi trypomastigotes, collected at days 5 to 8 after infection from LLC-MK2 parasite infected cultures, were allowed to swim out for 4h at 37C from a centrifuged pellet (2,500 rpm/10 min/room temperature). Trypomastigotes were then collected and counted in a CASY Cell Counter. Trypomastigotes, in supplemented DMEM, were added to H9c2 cultures in a multiplicity of infection of 1 and incubated for 18 h. Cells were washed once with PBS before incubation of the infected H9c2 monolayer with trypsin (Life-Technologies) to detach cells from the flask. Cells were counted in a CASY Cell Counter using a 150 um capillary and their density set at 5 * 10^4 cells per mL in supplemented assay DMEM. Infected H9c2 were dispensed into 384-well poly-lysine coated assay plates at 50uL per well using a Multidrop Combi dispenser. After seeding them, the plates were incubated at 37C, 5% CO2 for 72h. Cultures were then fixed and stained by addition of 50 uL of a solution containing 8% formaldehyde and 4 uM DRAQ5 DNA dye (BioStatus, UK) per well. […] Five images were collected per well for reliable statistical analysis. Automated image analysis was performed with a script developed on Acapella High Content Imaging and Analysis Software (PerkinElmer). Output: number of amastigotes per cell as infection level measurement.; assay type: functional, organism-based, Rattus norvegicus; conditions: H9c2, 4 h

Sterol 14-alpha demethylase, sequence (Q7Z1V1 whole entry): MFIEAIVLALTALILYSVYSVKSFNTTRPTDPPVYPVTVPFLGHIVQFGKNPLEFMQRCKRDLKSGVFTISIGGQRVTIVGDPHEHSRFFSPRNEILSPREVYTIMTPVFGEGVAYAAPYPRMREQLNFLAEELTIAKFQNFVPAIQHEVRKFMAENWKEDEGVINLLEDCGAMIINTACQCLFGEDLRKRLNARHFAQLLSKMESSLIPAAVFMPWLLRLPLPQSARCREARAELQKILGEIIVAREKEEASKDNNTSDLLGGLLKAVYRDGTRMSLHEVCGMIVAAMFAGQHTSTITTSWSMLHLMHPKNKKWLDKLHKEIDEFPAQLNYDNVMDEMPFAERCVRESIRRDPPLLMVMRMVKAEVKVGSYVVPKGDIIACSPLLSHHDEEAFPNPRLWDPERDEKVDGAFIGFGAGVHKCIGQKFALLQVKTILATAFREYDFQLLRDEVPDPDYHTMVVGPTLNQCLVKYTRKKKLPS

Compound	IC50 (Leishmania donovani [1])	IC50 [2]	IC50 (Trypanosoma cruzi [3])	IC50 [4]	IC50 (Trypanosoma cruzi [5])	IC50 (Leishmania donovani [6])	IC50 (Leishmania donovani [7])	IC50 [8]	IC50 (Trypanosoma cruzi [9])	IC50 (Leishmania donovani [10])	IC50 at 48 h [11]	IC50 (Trypanosoma cruzi [12])
CCCCN(C(=O)c1ccc(NC(=O)C(C)C)cc1)c1ccccc1	> 50.1 µM	> 39.8 µM	20 µM	15.8 µM	> 50.1 µM	1 µM	5.01 µM	12.6 µM	> 50.1 µM	3.16 µM	> 100 µM	10 µM
O=C(N[C@H](CO)c1ccccc1)c1ccc(-c2c[nH]c3nccc(C(F)(F)F)c23)s1	12.6 µM	0.398 µM	7.94 µM	0.158 µM	10 µM	31.6 µM	25.1 µM	6.31 µM	12.6 µM	15.8 µM	63.1 µM	10 µM
O=C(CCc1ccc(-c2ccccc2)o1)N1CCN(c2ccc(O)cc2)CC1	> 50.1 µM	39.8 µM	3.16 µM	25.1 µM	1.26 µM	10 µM	3.98 µM	2.51 µM	> 50.1 µM	1.26 µM	> 100 µM	0.794 µM
COc1cnc2ccc(=O)n(CCN3CCC(NC(=O)Cc4ccc(Cl)c(Cl)c4)CC3)c2c1	25.1 µM	0.501 µM	0.316 µM	0.251 µM	0.398 µM	5.01 µM	39.8 µM	0.794 µM	6.31 µM	5.01 µM	63.1 µM	0.158 µM
O=C(CN1CCN(c2ccccn2)CC1)Nc1cc(S(=O)(=O)N2CCCCCC2)ccc1Cl	50.1 µM	25.1 µM	10 µM	12.6 µM	7.94 µM	7.94 µM	6.31 µM	3.16 µM	> 50.1 µM	1.26 µM	> 100 µM	6.31 µM
CC(C)COC(=O)Nc1ccc(N2CCC(CNS(=O)(=O)c3ccccc3)CC2)c(F)c1	> 50.1 µM	20 µM	10 µM	2.51 µM	7.94 µM	3.98 µM	2 µM	2 µM	> 79.4 µM	1.26 µM	> 100 µM	7.94 µM
Cn1c(CC(=O)NNC(=O)c2ccc3ccccc3n2)nc2ccccc21	> 50.1 µM	6.31 µM	3.16 µM	7.94 µM	5.01 µM	6.31 µM	1.26 µM	31.6 µM	> 50.1 µM	0.794 µM	> 100 µM	6.31 µM
O=C(NNC(=O)c1ccccn1)c1ccc(-c2ccccc2)cc1	3.16 µM	0.631 µM	1.58 µM	0.316 µM	1.58 µM	3.16 µM	6.31 µM	31.6 µM	2 µM	3.16 µM	> 100 µM	1.26 µM
COc1ccc(C(=O)Nc2ccc(NC(=O)CO)cc2)cc1	20 µM	0.251 µM	> 50.1 µM	0.251 µM	> 50.1 µM	> 50.1 µM	> 50.1 µM	> 100 µM	> 50.1 µM	> 50.1 µM	> 100 µM	> 50.1 µM
CN(C)S(=O)(=O)c1ccc(Cl)c(C(=O)Nc2nc(-c3ccccn3)cs2)c1	6.31 µM	0.398 µM	1.58 µM	0.501 µM	2 µM	2 µM	10 µM	31.6 µM	6.31 µM	5.01 µM	> 100 µM	1.26 µM
Cc1nc(C(=O)Nc2ccc3c(c2)OCO3)nn1-c1ccc(Cl)cc1	12.6 µM	> 39.8 µM	6.31 µM	> 39.8 µM	1.58 µM	2.51 µM	2 µM	31.6 µM	> 50.1 µM	1.58 µM	> 100 µM	1 µM
Cc1noc(C)c1COc1cccc(C(=O)N=c2[nH]cccc2C)c1	6.31 µM	0.794 µM	> 50.1 µM	0.398 µM	50.1 µM	> 50.1 µM	20 µM	50.1 µM	2.51 µM	10 µM	> 100 µM	39.8 µM
Cc1nc(C(=O)Nc2ccc3c(c2)OCO3)nn1-c1ccc(F)cc1	> 50.1 µM	> 39.8 µM	3.16 µM	> 39.8 µM	1.26 µM	2 µM	7.94 µM	39.8 µM	> 50.1 µM	2.51 µM	> 100 µM	1 µM
COc1cc(OC)cc(C(NS(=O)(=O)c2ccc(Cl)c(C(F)(F)F)c2)c2nccn2C)c1 (centres undefined)	> 50.1 µM	7.94 µM	3.98 µM	7.94 µM	6.31 µM	10 µM	6.31 µM	31.6 µM	10 µM	5.01 µM	> 100 µM	3.16 µM
Cc1ccc(C)c(CN2C(=O)NC3(CCc4ccccc43)C2=O)c1 (centres undefined)	> 50.1 µM	1 µM	25.1 µM	0.501 µM	20 µM	> 50.1 µM	> 50.1 µM	39.8 µM	> 50.1 µM	15.8 µM	> 100 µM	7.94 µM
CCN(CC)c1ccc(S(=O)(=O)N(CC)CC)c2nonc12	15.8 µM	25.1 µM	25.1 µM	25.1 µM	50.1 µM	6.31 µM	0.398 µM	25.1 µM	> 50.1 µM	0.126 µM	> 100 µM	20 µM
COc1ccc(OC)c2c(=O)c(Cc3ccccc3)c(C)[nH]c12	> 50.1 µM	> 39.8 µM	0.224 µM	> 39.8 µM	0.501 µM	0.398 µM	3.98 µM	> 100 µM	> 50.1 µM	2.51 µM	> 100 µM	0.126 µM
